# Laboratory results: patent publication US11918592B2, “Inhibitors of cyclin dependent kinase 7 (CDK7)” (Syros Pharmaceuticals, Inc., priority 2018, dated 2024)
# Where two headings read alike, the source gives them in different places.
# Key:
# [1] = molecular target: CDK2/Cyclin E1 complex (Homo sapiens, UniProt P24941); test: CDK2 kinase inhibition assay (Caliper/LabChip EZ Reader)
# Experimental: (§2) Compounds of the invention were assayed for inhibition of CDK7, CDK9, CDK12, and CDK2 activity at Biortus Biosciences (Jiangyin, Jiangsu Province, P.R. of China) using kinase assays for each CDK developed with a Caliper/LabChip EZ Reader (Perkin Elmer, Waltham, MA).
# (§3) Furthermore, the CDK9 inhibition assay used CDK9/Cyclin T1 complex (8 nM) and “5-FAM-CDK9tide” peptide substrate (2 μM, synthesized fluorophore-labeled peptide with the following sequence: 5-FAM-GSRTPMY-NH2 (SEQ ID NO:2) where 5-FAM is defined above and NH2 signifies a C-terminal amide) with 10 mM MgCl2 in the buffer composition listed above. The CDK12 inhibition assay used CDK12 (aa686-1082)/Cyclin K complex (50 nM) and “5-FAM-CDK9tide” (2 μM) as defined above, with 2 mM MgCl2 in the buffer composition above. Additionally, the CDK2 inhibition assay used CDK2/Cyclin E1 complex (0.5 nM) and “5-FAM-CDK7tide” (2 μM) as defined above, with 2 mM MgCl2 in the buffer composition listed above.
# (§4) The incubation period at 27° C. for each CDK inhibition assay was chosen such that the fraction of phosphorylated peptide product produced in each assay, relative to the total peptide concentration, was approximately 20% (±5%) for the uninhibited kinase (35 min. for CDK7, 35 min. for CDK2, 3 hr. for CDK12, 15 min. for CDK9).
# [2] = molecular target: CDK7/Cyclin H/MAT1 complex (Homo sapiens, UniProt P50613); test: CDK7 kinase inhibition assay (Caliper/LabChip EZ Reader)
# Experimental: as §2, §3, §4
# [3] = system: MB453 cells; test: Inhibition of cell proliferation, CyQUANT Direct, MB453; format: cell-based, human; details: Homo sapiens, read-out: MB 453 proliferation calculated IC50
# Experimental: (§1) HCC70 and MB453 cells are cell lines derived from human triple negative breast cancer. COV318 and COV504 cells are cell lines derived from human ovarian cancer. Representative compounds of the invention were tested at different concentrations (from 4 μM to 126.4 pM; 0.5 log serial dilutions) for their ability to inhibit the proliferation of each of these cell lines. Known CDK inhibitors dinaciclib or N-((1S,3R)-3-((5-chloro-4-(1H-indol-3-yl) pyrimidin-2-yl)amino)cyclohexyl)-5-((E)-4-(dimethylamino)but-2-enamido)picolinamide and triptolide were used as positive controls. Cells were seeded at approximately 2,000 cells/well and grown in ATCC-formulated RPMI-1640 Medium (ATCC 30-2001)+10% FBS. The cells were cultured at 37° C. in a humidified chamber in the presence of 5% CO2. Proliferation assays were conducted over a 72-hour time period. CyQUANT® Direct Cell Proliferation Assay (Life Technologies, Chicago, IL USA) was used to assess the anti-proliferative effects of the compounds following manufacturer's directions and utilizing the reagents supplied with the CyQUANT® Direct Cell kit.
# [4] = system: COV318 cells; test: Inhibition of cell proliferation, CyQUANT Direct, COV318; format: cell-based; details: Homo sapiens; COV318 ovarian cancer cells, 72-hour; read-out: COV 318 proliferation calculated IC50
# Experimental: as §1
# [5] = molecular target: CDK9/Cyclin T1 complex (Homo sapiens, UniProt P50750); test: CDK9 kinase inhibition assay (Caliper/LabChip EZ Reader)
# Experimental: as §2, §3, §4
# [6] = system: COV504 cells; test: Inhibition of cell proliferation, CyQUANT Direct, COV504; format: cell-based; details: Homo sapiens; COV504 ovarian cancer cells, 72-hour; read-out: COV 504 proliferation calculated IC50
# Experimental: as §1
# [7] = system: HCC70 cells; test: Inhibition of cell proliferation, CyQUANT Direct, HCC70; format: cell-based, human; details: Homo sapiens, read-out: HCC 70 proliferation calculated IC50
# Experimental: as §1
# [8] = molecular target: CDK12 (aa686-1082)/Cyclin K complex (Homo sapiens, UniProt Q9NYV4); test: CDK12 kinase inhibition assay (Caliper/LabChip EZ Reader)
# [9] = MB453 triple negative breast cancer cells, 72-hour
# [10] = HCC70 triple negative breast cancer cells, 72-hour
# CDK12 (aa686-1082)/Cyclin K complex, sequence (Q9NYV4 686-1082): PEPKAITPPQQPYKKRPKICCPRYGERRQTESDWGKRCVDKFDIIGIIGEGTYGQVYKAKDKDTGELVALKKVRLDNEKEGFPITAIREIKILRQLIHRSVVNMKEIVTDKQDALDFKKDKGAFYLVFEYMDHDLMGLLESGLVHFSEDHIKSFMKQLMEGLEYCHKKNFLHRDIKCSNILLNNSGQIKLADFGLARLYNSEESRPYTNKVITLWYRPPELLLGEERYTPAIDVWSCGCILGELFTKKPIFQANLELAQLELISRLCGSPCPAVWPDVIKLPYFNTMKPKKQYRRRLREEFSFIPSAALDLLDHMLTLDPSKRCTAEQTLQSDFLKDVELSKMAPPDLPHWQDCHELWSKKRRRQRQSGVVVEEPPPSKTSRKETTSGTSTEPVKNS
# CDK12 (aa686-1082)/Cyclin K complex, sequence (O75909 whole entry partner, the tested form may be a part): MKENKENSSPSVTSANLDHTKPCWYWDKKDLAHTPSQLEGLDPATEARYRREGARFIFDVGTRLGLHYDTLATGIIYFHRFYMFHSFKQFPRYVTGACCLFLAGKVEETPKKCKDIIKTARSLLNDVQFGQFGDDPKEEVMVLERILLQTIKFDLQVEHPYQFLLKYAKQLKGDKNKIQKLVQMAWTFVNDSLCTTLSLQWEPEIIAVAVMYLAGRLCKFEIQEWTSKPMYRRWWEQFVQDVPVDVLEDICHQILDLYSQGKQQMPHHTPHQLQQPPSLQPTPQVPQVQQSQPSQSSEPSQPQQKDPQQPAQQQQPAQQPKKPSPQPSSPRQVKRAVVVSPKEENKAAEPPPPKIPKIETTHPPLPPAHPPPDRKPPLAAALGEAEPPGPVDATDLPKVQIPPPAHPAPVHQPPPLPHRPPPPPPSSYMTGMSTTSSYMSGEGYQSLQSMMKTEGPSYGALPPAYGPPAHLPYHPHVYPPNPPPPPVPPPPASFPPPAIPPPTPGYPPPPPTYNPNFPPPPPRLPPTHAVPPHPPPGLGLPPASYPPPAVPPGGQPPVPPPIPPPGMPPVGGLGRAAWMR
# CDK9/Cyclin T1 complex, sequence (P50750 whole entry): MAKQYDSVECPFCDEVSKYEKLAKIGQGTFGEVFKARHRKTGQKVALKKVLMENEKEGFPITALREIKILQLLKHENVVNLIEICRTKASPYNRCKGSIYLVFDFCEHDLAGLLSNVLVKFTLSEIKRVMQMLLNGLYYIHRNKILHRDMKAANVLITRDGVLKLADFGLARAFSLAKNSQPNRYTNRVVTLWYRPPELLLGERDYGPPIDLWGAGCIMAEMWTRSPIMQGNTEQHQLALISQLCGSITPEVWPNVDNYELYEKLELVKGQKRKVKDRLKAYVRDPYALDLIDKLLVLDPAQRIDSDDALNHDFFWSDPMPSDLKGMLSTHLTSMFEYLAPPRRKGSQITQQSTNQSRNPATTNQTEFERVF
# CDK9/Cyclin T1 complex, sequence (O60563 whole entry partner): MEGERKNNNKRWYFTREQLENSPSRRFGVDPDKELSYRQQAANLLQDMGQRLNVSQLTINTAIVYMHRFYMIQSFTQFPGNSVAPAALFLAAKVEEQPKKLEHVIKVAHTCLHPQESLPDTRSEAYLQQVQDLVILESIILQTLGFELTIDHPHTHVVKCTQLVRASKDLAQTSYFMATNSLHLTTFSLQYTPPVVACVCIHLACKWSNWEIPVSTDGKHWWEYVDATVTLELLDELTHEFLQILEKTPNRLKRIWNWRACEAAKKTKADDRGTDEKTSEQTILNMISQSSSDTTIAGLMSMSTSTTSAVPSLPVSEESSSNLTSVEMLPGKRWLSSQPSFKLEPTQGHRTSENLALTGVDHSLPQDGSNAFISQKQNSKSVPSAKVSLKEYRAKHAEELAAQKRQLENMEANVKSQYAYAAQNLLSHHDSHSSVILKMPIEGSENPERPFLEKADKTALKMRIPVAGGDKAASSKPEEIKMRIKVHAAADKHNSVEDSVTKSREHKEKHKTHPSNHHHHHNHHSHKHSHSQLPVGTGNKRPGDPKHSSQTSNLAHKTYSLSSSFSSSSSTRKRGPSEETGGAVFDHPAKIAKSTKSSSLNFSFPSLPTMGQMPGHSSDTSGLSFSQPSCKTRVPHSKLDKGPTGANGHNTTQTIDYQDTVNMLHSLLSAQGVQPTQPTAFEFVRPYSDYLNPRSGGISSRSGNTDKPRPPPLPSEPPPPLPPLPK
# CDK7/Cyclin H/MAT1 complex, sequence (P50613 whole entry): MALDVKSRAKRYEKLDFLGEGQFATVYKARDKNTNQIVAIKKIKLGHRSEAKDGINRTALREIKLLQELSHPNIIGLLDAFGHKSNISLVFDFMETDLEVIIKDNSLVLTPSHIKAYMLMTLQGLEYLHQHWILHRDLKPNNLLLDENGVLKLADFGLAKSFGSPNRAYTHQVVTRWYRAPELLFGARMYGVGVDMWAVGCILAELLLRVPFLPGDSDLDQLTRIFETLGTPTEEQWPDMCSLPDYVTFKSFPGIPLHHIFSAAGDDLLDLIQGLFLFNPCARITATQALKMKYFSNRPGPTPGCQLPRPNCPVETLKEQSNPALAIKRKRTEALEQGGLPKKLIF
# CDK7/Cyclin H/MAT1 complex, sequence (P51946 whole entry partner): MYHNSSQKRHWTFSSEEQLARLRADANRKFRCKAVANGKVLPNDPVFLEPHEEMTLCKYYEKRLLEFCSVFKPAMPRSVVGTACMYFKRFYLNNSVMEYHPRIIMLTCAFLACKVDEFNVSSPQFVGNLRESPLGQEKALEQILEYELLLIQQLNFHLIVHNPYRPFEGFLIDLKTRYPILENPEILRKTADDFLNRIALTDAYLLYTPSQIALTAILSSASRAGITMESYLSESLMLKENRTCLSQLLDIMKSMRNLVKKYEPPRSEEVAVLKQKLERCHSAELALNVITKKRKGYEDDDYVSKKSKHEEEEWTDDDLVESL
# CDK7/Cyclin H/MAT1 complex, sequence (P51948 whole entry partner): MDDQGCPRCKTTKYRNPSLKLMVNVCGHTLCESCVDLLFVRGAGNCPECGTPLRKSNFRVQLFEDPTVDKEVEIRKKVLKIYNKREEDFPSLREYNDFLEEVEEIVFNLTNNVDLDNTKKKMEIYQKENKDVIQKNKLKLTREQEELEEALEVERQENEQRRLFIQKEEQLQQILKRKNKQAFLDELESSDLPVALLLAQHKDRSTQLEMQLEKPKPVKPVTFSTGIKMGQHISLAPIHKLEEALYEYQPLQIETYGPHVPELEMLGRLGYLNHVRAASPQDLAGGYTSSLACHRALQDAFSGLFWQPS
SMILES,IC50 [1],IC50 [2],"IC50 [3, 9]",IC50 [4],IC50 [5],IC50 [6],"IC50 [7, 10]",IC50 [8],IC50 ([3]; 72 h),"IC50 ([7]; HCC70, 72 h)"
"Cc1noc(C)c1-c1ccc2c(-c3nc(N[C@H]4CCC[C@@H]4N4CCCC4)ncc3C(F)(F)F)c[nH]c2c1 [Compound 143, 4-[6-(3,5-dimethylisoxazol-4-yl)-1H-indol-3-yl]-N-[(1S,2S)-2-pyrrolidin-1-ylcyclopentyl]-5-(trifluoromethyl)pyrimidin-2-amine]",> 500 nM,< 30 nM,< 100 nM,500 to 2000 nM,> 500 nM,< 100 nM,100 to 500 nM,> 500 nM,–,–
N#Cc1ccc2c(-c3nc(N[C@@H]4CNC[C@H]4F)ncc3C(F)(F)F)c[nH]c2c1 (relative stereo) [Compound 110],> 500 nM,100 to 500 nM,> 2000 nM,> 2000 nM,> 500 nM,500 to 2000 nM,500 to 2000 nM,> 500 nM,–,–
N#Cc1ccc2c(-c3nc(N[C@@H]4CNC[C@@H]4O)ncc3C(F)(F)F)c[nH]c2c1 (relative stereo) [Compound 107],> 500 nM,100 to 500 nM,> 2000 nM,> 2000 nM,> 500 nM,> 2000 nM,> 2000 nM,> 500 nM,–,–
"Cc1noc(C)c1-c1ccc2c(-c3nc(N[C@H]4CCC[C@@H]4NCCF)ncc3C(F)(F)F)c[nH]c2n1 [Compound 151, (1S,2S)—N1-[4-[6-(3,5-dimethylisoxazol-4-yl)-1H-pyrrolo[2,3-b]pyridin-3-yl]-5-(trifluoromethyl)pyrimidin-2-yl]-N2-(2-fluoroethyl)cyclopentane-1,2-diamine]",> 500 nM,< 30 nM,100 to 500 nM,> 2000 nM,> 500 nM,< 100 nM,< 100 nM,> 500 nM,–,–
"COC1CN([C@@H]2CCC[C@@H]2Nc2ncc(C(F)(F)F)c(-c3c[nH]c4nc(-c5c(C)noc5C)ccc34)n2)C1 [Compound 165, 4-[6-(3,5-dimethylisoxazol-4-yl)-1H-pyrrolo[2,3-b]pyridin-3-yl]-N-[(1S,2R)-2-(3-methoxyazetidin-1-yl)cyclopentyl]-5-(trifluoromethyl)pyrimidin-2-amine]",> 500 nM,30 to 100 nM,500 to 2000 nM,> 2000 nM,> 500 nM,> 2000 nM,> 2000 nM,> 500 nM,–,–
"COCCN[C@H]1CCC[C@@H]1Nc1ncc(C(F)(F)F)c(-c2c[nH]c3cc(C#N)ccc23)n1 [Compound 123, 3-[2-[[(1S,2S)-2-(2-methoxyethylamino)cyclopentyl]-amino]-5-(trifluoromethyl)pyrimidin-4-yl]-1H-indole-6-carbonitrile]",> 500 nM,< 30 nM,100 to 500 nM,100 to 500 nM,> 500 nM,100 to 500 nM,100 to 500 nM,> 500 nM,–,–
"Cc1noc(C)c1-c1ccc2c(-c3nc(N[C@H]4CCC[C@@H]4N4CCC4)ncc3C(F)(F)F)c[nH]c2n1 [Compound 146, N-[(1S, 2S)-2-(azetidin-1-yl)cyclopentyl]-4-[6-(3,5-dimethylisoxazol-4-yl)-1H-pyrrolo [2,3-b]pyridin-3-yl]-5-(trifluoromethyl) pyrimidin-2-amine]",> 500 nM,< 30 nM,–,> 2000 nM,> 500 nM,< 100 nM,–,> 500 nM,< 100 nM,< 100 nM
"Cc1noc(C)c1-c1ccc2c(-c3nc(N[C@H]4CCC[C@H]4N4CC(F)C4)ncc3C(F)(F)F)c[nH]c2n1 [Compound 156, 4-[6-(3,5-dimethylisoxazol-4-yl)-1H-pyrrolo [2,3-b]pyridin-3-yl]-N-[(1S, 2R)-2-(3-fluoroazetidin-1-yl)cyclopentyl]-5-(trifluoromethyl) pyrimidin-2-amine]",> 500 nM,< 30 nM,500 to 2000 nM,> 2000 nM,> 500 nM,100 to 500 nM,100 to 500 nM,> 500 nM,–,–
CN1CC[C@H](Nc2ncc(C(F)(F)F)c(-c3c[nH]c4cc(C#N)ccc34)n2)C1 [Compound 109],> 500 nM,100 to 500 nM,500 to 2000 nM,500 to 2000 nM,> 500 nM,500 to 2000 nM,500 to 2000 nM,> 500 nM,–,–
